Test results reported in PubChem BioAssay AID248 (DTP/NCI, 2004).
Values joined by “and” are separate entries in the source; they are usually repeats but may differ in a detail not shown here. Equal entries are not always repeated. Toxic doses and inconclusive results are not listed.

Test system: L1210 leukemia ip in BDF1 mice, survival T/C
Experiment: NCI In Vivo Anticancer Drug Screen. Data for tumor model L1210 Leukemia (intraperitoneal) in B6D2F1 (BDF1) mice
Conditions: endpoint: mean survival time, higher = longer survival
Outline: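 In this screen, tumor-bearing mice given compound are compared to those given vehicle, and their survival values are reported as a treated-to-control quotient.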

[1] = dose: 100.0 mg/kg/injection, schedule: Q04DX002 (ip), vehicle: saline with Tween-80
[2] = dose: 200.0 mg/kg/injection, schedule: Q04DX002 (ip), vehicle: saline with Tween-80
[3] = dose: 400.0 mg/kg/injection, schedule: Q04DX002 (ip), vehicle: saline with Tween-80

CN[C@H]1CCc2cc(OC)c(OC)c(OC)c2-c2ccc(OC)c(=O)cc21
T/C (dose: 0.14 mg/kg/injection, schedule: Q01DX009 (ip), vehicle: saline): 95 % of control | T/C (dose: 0.23 mg/kg/injection, schedule: Q01DX009 (ip), vehicle: saline): 104 % of control | T/C (dose: 0.39 mg/kg/injection, schedule: Q01DX009 (ip), vehicle: saline): 112 % of control | T/C (dose: 0.39 mg/kg/injection, schedule: Q04DX003 (ip), vehicle: saline): 101 % of control | T/C (dose: 0.65 mg/kg/injection, schedule: Q01DX009 (ip), vehicle: saline): 110 % of control | T/C (dose: 0.65 mg/kg/injection, schedule: Q04DX003 (ip), vehicle: saline): 102 % of control | T/C (dose: 1.0 mg/kg/injection, schedule: Q03HX008 (ip), vehicle: saline): 118 % of control | T/C (dose: 1.08 mg/kg/injection, schedule: Q01DX009 (ip), vehicle: saline): 110 % of control | T/C (dose: 1.08 mg/kg/injection, schedule: Q04DX003 (ip), vehicle: saline): 101 % of control | T/C (dose: 1.8 mg/kg/injection, schedule: Q04DX003 (ip), vehicle: saline): 101 % of control | T/C (dose: 2.0 mg/kg/injection, schedule: Q01DX004 (ip), vehicle: saline): 106 % of control | T/C (dose: 2.0 mg/kg/injection, schedule: Q01DX004 (oral), vehicle: saline): 103 % of control | T/C (dose: 2.0 mg/kg/injection, schedule: Q03HX008 (ip), vehicle: saline): 120 % of control | T/C (dose: 3.0 mg/kg/injection, schedule: Q01DX001 (ip), vehicle: saline): 100 % of control | T/C (dose: 3.0 mg/kg/injection, schedule: Q04DX003 (ip), vehicle: saline): 95 % of control | T/C (dose: 4.0 mg/kg/injection, schedule: Q01DX001 (oral), vehicle: saline): 103 % of control | T/C (dose: 4.0 mg/kg/injection, schedule: Q01DX004 (ip), vehicle: saline): 106 % of control | T/C (dose: 4.0 mg/kg/injection, schedule: Q01DX004 (oral), vehicle: saline): 111 % of control | T/C (dose: 5.0 mg/kg/injection, schedule: Q01DX001 (ip), vehicle: saline): 103 % of control | T/C (dose: 5.3 mg/kg/injection, schedule: Q01DX001 (ip), vehicle: saline): 102 % of control | T/C (dose: 8.0 mg/kg/injection, schedule: Q01DX001 (ip), vehicle: saline): 101 % of control and 102 % of control | T/C (dose: 8.0 mg/kg/injection, schedule: Q01DX001 (oral), vehicle: saline): 108 % of control | T/C (dose: 8.0 mg/kg/injection, schedule: Q01DX004 (ip), vehicle: saline): 113 % of control | T/C (dose: 8.0 mg/kg/injection, schedule: Q01DX004 (oral), vehicle: saline): 111 % of control | T/C (dose: 8.0 mg/kg/injection, schedule: Q03HX008 (ip), vehicle: saline): 156 % of control | T/C (dose: 8.0 mg/kg/injection, schedule: Q## X002 (ip), vehicle: saline): 119 % of control | T/C (dose: 8.0 mg/kg/injection, schedule: Q## X003 (ip), vehicle: saline): 100 % of control | T/C (dose: 8.0 mg/kg/injection, schedule: Q## X008 (ip), vehicle: saline): 107 % of control | T/C (dose: 8.0 mg/kg/injection, schedule: Q## X016 (ip), vehicle: saline): 110 % of control | T/C (dose: 9.0 mg/kg/injection, schedule: Q01DX001 (ip), vehicle: saline): 104 % of control | T/C (dose: 12.0 mg/kg/injection, schedule: Q01DX001 (ip), vehicle: saline): 104 % of control | T/C (dose: 16.0 mg/kg/injection, schedule: Q01DX001 (ip), vehicle: saline): 105 % of control | T/C (dose: 16.0 mg/kg/injection, schedule: Q01DX001 (oral), vehicle: saline): 109 % of control | T/C (dose: 16.0 mg/kg/injection, schedule: Q01DX004 (ip), vehicle: saline): 118 % of control | T/C (dose: 16.0 mg/kg/injection, schedule: Q## X002 (ip), vehicle: saline): 98 % of control | T/C (dose: 16.0 mg/kg/injection, schedule: Q## X003 (ip), vehicle: saline): 112 % of control | T/C (dose: 16.0 mg/kg/injection, schedule: Q## X016 (ip), vehicle: saline): 112 % of control | T/C (dose: 16.0 mg/kg/injection, schedule: Q## X024 (ip), vehicle: saline): 100 % of control | T/C (dose: 18.0 mg/kg/injection, schedule: Q01DX001 (ip), vehicle: saline): 114 % of control | T/C (dose: 32.0 mg/kg/injection, schedule: Q01DX001 (ip), vehicle: saline): 101 % of control and 103 % of control | T/C (dose: 32.0 mg/kg/injection, schedule: Q01DX001 (oral), vehicle: saline): 119 % of control and 124 % of control | T/C (dose: 32.0 mg/kg/injection, schedule: Q01DX009 (ip), vehicle: saline): 102 % of control | T/C (dose: 32.0 mg/kg/injection, schedule: Q## X002 (ip), vehicle: saline): 117 % of control | T/C (dose: 32.0 mg/kg/injection, schedule: Q## X003 (ip), vehicle: saline): 104 % of control | T/C (dose: 32.0 mg/kg/injection, schedule: Q## X016 (ip), vehicle: saline): 110 % of control | T/C (dose: 64.0 mg/kg/injection, schedule: Q01DX001 (ip), vehicle: saline): 114 % of control and 116 % of control | T/C (dose: 64.0 mg/kg/injection, schedule: Q## X016 (ip), vehicle: saline): 89 % of control | T/C (dose: 128.0 mg/kg/injection, schedule: Q01DX001 (ip), vehicle: saline): 124 % of control | T/C (dose: 256.0 mg/kg/injection, schedule: Q01DX001 (ip), vehicle: saline): 123 % of control

CNc1nc(Cl)nc(Cl)n1
T/C (dose: 100.0 mg/kg/injection, schedule: Q04DX003 (ip), vehicle: saline): 87 % of control | T/C (dose: 200.0 mg/kg/injection, schedule: Q04DX003 (ip), vehicle: saline): 87 % of control

COC(=O)NNc1ccccc1C(=O)OC
T/C [1]: 88 % of control | T/C [2]: 88 % of control | T/C [3]: 98 % of control

COC(=O)c1cn2cc(Cl)cc(Cl)c2c1C(=O)OC
T/C [1]: 95 % of control | T/C [2]: 92 % of control | T/C [3]: 95 % of control

COc1ccc(N2c3ccccc3-c3cc[nH]c(=O)c3[C@H]2O)cc1OC
T/C (dose: 12.5 mg/kg/injection, schedule: Q04DX003 (ip), vehicle: saline): 93 % of control | T/C (dose: 25.0 mg/kg/injection, schedule: Q04DX003 (ip), vehicle: saline): 101 % of control | T/C (dose: 50.0 mg/kg/injection, schedule: Q04DX003 (ip), vehicle: saline): 91 % of control | T/C (dose: 75.0 mg/kg/injection, schedule: Q04DX003 (ip), vehicle: saline): 99 % of control | T/C (dose: 115.0 mg/kg/injection, schedule: Q04DX003 (ip), vehicle: saline): 105 % of control | T/C (dose: 170.0 mg/kg/injection, schedule: Q04DX003 (ip), vehicle: saline): 94 % of control

CN(CCO)CC1COc2ccccc2O1 (configuration not stated)
T/C (dose: 50.0 mg/kg/injection, schedule: Q01DX001 (ip), vehicle: saline): 97 % of control | T/C (dose: 100.0 mg/kg/injection, schedule: Q01DX001 (ip), vehicle: saline): 105 % of control | T/C (dose: 200.0 mg/kg/injection, schedule: Q01DX001 (ip), vehicle: saline): 88 % of control

CCCCCC/C=C/C1CC(=O)OC1=O (configuration not stated)
T/C (dose: 25.0 mg/kg/injection, schedule: Q01DX009 (ip), vehicle: saline with Tween-80): 100 % of control | T/C (dose: 50.0 mg/kg/injection, schedule: Q01DX009 (ip), vehicle: saline with Tween-80): 88 % of control | T/C (dose: 50.0 mg/kg/injection, schedule: Q04DX003 (ip), vehicle: saline with Tween-80): 98 % of control | T/C (dose: 100.0 mg/kg/injection, schedule: Q01DX009 (ip), vehicle: saline with Tween-80): 100 % of control | T/C (dose: 100.0 mg/kg/injection, schedule: Q04DX003 (ip), vehicle: saline with Tween-80): 101 % of control and 112 % of control | T/C (dose: 200.0 mg/kg/injection, schedule: Q01DX009 (ip), vehicle: saline with Tween-80): 97 % of control | T/C (dose: 200.0 mg/kg/injection, schedule: Q04DX003 (ip), vehicle: saline with Tween-80): 95 % of control and 101 % of control | T/C (dose: 400.0 mg/kg/injection, schedule: Q04DX003 (ip), vehicle: saline with Tween-80): 103 % of control

O=C1CC(c2ccccc2)=NCCN1
T/C (dose: 100.0 mg/kg/injection, schedule: Q01DX009 (ip), vehicle: Klucel (hydroxypropylcellulose) (HPC)): 97 % of control | T/C (dose: 200.0 mg/kg/injection, schedule: Q01DX009 (ip), vehicle: Klucel (hydroxypropylcellulose) (HPC)): 95 % of control | T/C (dose: 400.0 mg/kg/injection, schedule: Q01DX009 (ip), vehicle: Klucel (hydroxypropylcellulose) (HPC)): 114 % of control

C=CCCCCCCCCC(=O)N/N=C/c1ccccc1
T/C (dose: 100.0 mg/kg/injection, schedule: Q04DX002 (ip), vehicle: Klucel (hydroxypropylcellulose) (HPC)): 95 % of control | T/C (dose: 200.0 mg/kg/injection, schedule: Q04DX002 (ip), vehicle: Klucel (hydroxypropylcellulose) (HPC)): 100 % of control

CCCC(NCc1ccccc1)C(=O)O (configuration not stated)
T/C (dose: 100.0 mg/kg/injection, schedule: Q01DX009 (ip), vehicle: acetone): 90 % of control | T/C (dose: 200.0 mg/kg/injection, schedule: Q01DX009 (ip), vehicle: acetone): 90 % of control | T/C (dose: 400.0 mg/kg/injection, schedule: Q01DX009 (ip), vehicle: acetone): 90 % of control
